Reference: patent publication US8729048B2, “Methods and materials for assessing responsiveness to PARP inhibitors and platinating agents” (Mayo Foundation for Medical Education and Research, priority 2011, dated 2014)

Experiments:
[1] = test system: BRCA2-deficient PEO1 cells; test: Clonogenic assay, PEO1; format: cell-based
Procedure: FIG. 5. NHEJ is a major contributor to PARP inhibitor effects in BRCA2-deficient cells. (A) Western blots showing knockdown of Ku80 in PEO1 and PEO4 cells. (B) Clonogenic survival of PEO1 and PEO4 cells from (A), which were treated with the indicated ABT-888 concentration for 72 hours, washed, and allowed to form colonies. (C) Western blots following treatment with siRNA targeting luciferase (control), Ku80, PARP1, or both Ku80 and PARP1. (D) Clonogenic viability of PEO 1 and PEO4 cells from (C). Following knockdown, cells were plated onto triplicate plates and allowed to form colonies. (E) Clonogenic survival of PEO1 cells following Artemis knockdown. After treatment with the indicated siRNA, plates were treated with indicated concentration of ABT-888 for 72 hours, washed, and allowed to form colonies. Inset, Western blots showing knockdown using luciferase (control) or Artemis siRNAs in PEO1 cells. (F) Clonogenic survival of PEO1 and PEO4 cells treated for 72 hours with ABT-888 in combination with diluent or 500 nM DNA-PKi. All results are reported as means of triplicate plates±SEM, and are representative of 3 independent experiments.
FIG. 13. DNA-PK inhibition diminishes the lethality of multiple PARP inhibitors in PEO1 cells. (A) Representative clonogenic plates after PEO1 cells were treated with ABT-888 (0, 5, or 20 μM) with or without 500 nM DNA-PKi. (B, C) Bar graphs comparing clonogenic survival of PEO1 cells exposed to two PARP inhibitors with or without 500 nM DNA-PKi. The PARP inhibitors used for these assays are ABT-888 (B) and AZD2281/olaparib (C). Results are reported as mean±SEM of triplicate plates.
FIG. 18. Artemis knockdown confers resistance to PARP inhibition and cisplatin in BRCA2-deficient/mutant cells. Clonogenic survival assays of PEO1 shRNA lines continuously exposed to ABT-888 (A) or cisplatin (B), or exposed to ionizing radiation (C). (D-F) Clonogenic survival assays of CAPAN1 shRNA lines exposed to ABT-888 (D), cisplatin (E), or exposed to ionizing radiation (F).
Colony formation assays were performed on siRNA-transfected PEO1 and PEO4 cells 48 hours after the second transfection. Cells were trypsinized and plated at 750 cells/plate in triplicate 60-mm dishes containing medium A, allowed to grow 10-14 days, and stained with Coomassie Brilliant Blue. Colonies containing ≧50 cells were scored manually. To assess methyl methanesulfonate (MMS) sensitivity, PEO1 or PEO4 cells were incubated for 48 hours after the second siRNA treatment, plated onto 60-mm dishes, allowed to adhere for 4 hours, exposed to the indicated concentration of MMS (Sigma-Aldrich) for 1 hour, washed with sterile RPMI 1640, and allowed to grow into colonies in medium A. For drug treatment, cells (without siRNA) were allowed to adhere for 4-6 hours, then treated with the indicated concentrations of ABT-888 and/or AZ12594248 for 72 hours. Following drug treatment, cells were washed with drug-free RPMI 1640, cultured for 10-14 days in medium A, and stained. For HCC1937 and HCC1937/BRCA1 cells, a similar procedure was used with several changes: 1000 cells were plated in medium B, and treatment was continuous for 16-20 days. M059J and M059J+DNA-PKcs were plated at 1000 cells per plate in medium C and treated for 48 hours. GM16666 and 16667 were plated at 1000 cells per plate in medium D and treated for 48 hours.

[2] = test system: DNA-PK substrates (DNA-PKcs Thr2609, Histone H2AX Ser139) in PEO1 cells; test: Immunoblotting for phosphorylation of DNA-PK substrates; format: cell-based; details: 72 hours
Procedure: FIG. 2. DNA-PK is activated following PARP inhibitor exposure in PEO1 cells. (A) Western blots for poly(ADP-ribose) polymer (pADPr) and phosphorylation of DNA-PK substrates (DNA-PKcs autophosphorylation at Thr^2609 and Histone H2AX at Ser^139) in PEO1 cells following 72 hours exposure to increasing concentrations of ABT-888 (0, 0.625, 1.25, 2.5, 5, 10, 20, and 40 μM). Hsp90, total DNA-PKcs, and Histone H1 are used as loading controls. (B) Phosphorylation of DNA-PK substrates after treatment for 72 hours with diluent (0.2% DMSO, lanes 1 and 4), 500 nM DNA-PK inhibitor AZ12594248 (DNA-PKi, lanes 2 and 5), or 5 μM ATM inhibitor KU55933 (ATMi, lanes 3 and 6) alone (lanes 1-3) or in combination with 20 μM ABT-888 (lanes 4-6). (C) Quantitation of cells positive for phospho-H2AX foci in PEO1 and PEO4 cells, following treatment with DMSO, 500 nM DNA-PKi, 20 μM ABT-888 (ABT), ABT-888 and DNA-PKi, 50 μM Etoposide (Etop), or 5 Gy ionizing radiation (IR). Cells were exposed to ABT-888 and/or DNA-PKi for 72 hours, etoposide for 1 hour, or allowed to recover for 1 hour after IR. Results are reported as mean±SEM of 3 independent experiments. (D) Confocal images of PEO1 cells treated as in […]. Phospho-Ser^139-H2AX is shown in green, phospho-Thr^2609-DNA-PKcs in red, and Hoechst 33258 in blue.
Cells were washed twice with calcium- and magnesium-free Dulbecco's phosphate-buffered saline (PBS) and solubilized in 6 M guanidine hydrochloride containing 250 mM Tris-HCl, pH 8.5 at 20° C., 10 mM EDTA, 1% (v/v) 2-mercaptoethanol, and 1 mM freshly added phenylmethylsulfonyl fluoride. After preparation for electrophoresis as described elsewhere (Kaufmann et al., Blood, 89:2098-2104 (1997)), aliquots containing 50 μg of protein (determined by the bicinchoninic acid method—S10) were separated on SDS-polyacrylamide gels containing 8% (w/v) acrylamide, electrophoretically transferred to nitrocellulose, and probed with immunological reagents as described elsewhere (Kaufmann, Anal. Biochem., 296:283-286 (2001)). […]

C[C@]1(c2nc3c(C(N)=O)cccc3[nH]2)CCCN1 [ABT-888]
clonogenic survival ([1]; PEO1 cells, 72 hours): decreased the clonogenic survival | clonogenic survival with ABT-888 after siRNA depletion of Artemis ([1]; PEO1 cells, Artemis siRNA, 72 hours): reversed the lethality | clonogenic survival with ABT-888 after Ku80 knockdown ([1]; PEO1 cells, Ku80 siRNA, 72 hours): markedly enhanced the survival | clonogenic sensitivity after stable Artemis knockdown ([1]; PEO1 shRNA lines, continuous exposure): conferred resistance | phosphorylation of DNA-PKcs at Thr2609 and H2AX at Ser139 ([2]; ABT-888 0-40 μM): phosphorylated in a dose-dependent manner

CCN1CCN(CC(=O)Nc2ccc(-c3cccc4c(=O)cc(N5CCOCC5)oc34)c3sc4ccccc4c23)CC1 [AZ 12594248]
effect of co-administration on AZD2281 clonogenic lethality ([1]; PEO1 cells, 500 nM DNA-PKi): diminished the effects | effect of co-administration on ABT-888 clonogenic lethality ([1]; PEO1 cells, 500 nM DNA-PKi, 72 hours): diminished the effects | effect on ABT-888-induced phosphorylation of DNA-PKcs and H2AX ([2]; with 20 μM ABT-888, 500 nM DNA-PKi or 5 μM ATMi): prevented the ABT-888-induced phosphorylation of DNA-PKcs and H2AX
